The source of these data is patent US11708357B2, “Crystal form of pyrrolidinyl urea derivative and application thereof” (ZHANGZHOU PIEN TZE HUANG PHARMACEUTICAL CO., LTD., priority 2020, dated 2023).

As usually defined, the IC50 is the midpoint of a concentration-inhibition curve. By AUC(0-inf) is commonly meant the area under the concentration-time curve extrapolated to infinity. Higher therefore signals more exposure. The clearance is the volume of plasma or blood freed of the substance per unit of time. For orientation: half-life means the time needed for the level to fall by half in the phase considered. Read a low half-life as fast loss.

One data set addresses T1, CYP2C9 (Homo sapiens, UniProt P11712).
T1 construct: from tissue; host or cells: human liver microsomes
Nature of the data set: Cytochrome P450 isozyme inhibitory activity test, CYP2C9. The format is in vitro ADME. As to conditions: liver microsomes; human liver microsome. On the procedure: The inhibitory activities of the test compound on different subtypes of human cytochrome P450 isozymes were determined. The test compound, standard inhibitor (100× final concentration), and a mixed substrate working solution were prepared; the microsome frozen in −80° C. refrigerator was thawed. […]
(In general: Liver microsomes are vesicles of endoplasmic reticulum, rich in cytochrome P450 enzymes.)

Data set [1] in a line: Plasma protein binding rate (PPB) test, human plasma. The class given is in vitro ADME. Particulars: 2 μM, dialysis 37° C. 4 hours. On the procedure:
The protein binding rates of the test compound in the plasma of humans and SD rats were determined.
796 μL of blank plasma from humans and SD rats (plasma purchased from BioreclamationIVT) were taken, 4 μL of working solution of the test compound (400 μM) or warfarin working solution (400 μM) was added and the final concentration of the test compound or warfarin was 2 μM. The sample was mixed thoroughly. […] All samples were analyzed by LC/MS/MS after protein precipitation, and the plasma protein unbound rate, binding rate and recovery rate was calculated according to the following formula: % unbound rate=100*free compound concentration at the membrane buffer side/total compound concentration at the membrane plasma side, % protein binding rate=100−% unbound rate, % recovery rate=100*(free compound concentration at the membrane buffer side+total compound concentration at the membrane plasma side)/total compound concentration before dialysis.

Data set [2] in a line: In vivo pharmacokinetic study in beagle dogs after single administration. Particulars: male, dog, plasma, 2 mg/kg, 2 mpk intravenous injection. On the procedure:
Male beagle dogs were used as test animals, the concentration of the compound in blood after single administration was determined to evaluate the pharmacokinetic behavior.
Beagle dogs (Male, 6-12 kg, more than 6 months, Beijing Marshall Biotechnology Co., Ltd.).
The objective of the test was to study the pharmacokinetic characteristics of the test compound in non-rodent after intravenous injection and oral administration. In the experiment, the test compound was prepared into a clear solution or homogeneous suspension and administered to the beagle dogs by single intravenous injection or oral administration. In the intravenous injection group, the menstruum was a certain proportion of dimethyl sulfoxide in HP-β-cyclodextrin solution or a certain proportion of ethanol, polyethylene glycol 400 and physiological saline solution, the mixture was vortexed and subjected to ultrasonic treatment to prepare 2 mg/mL clear solution, then filtered with microporous membrane for later use; in the oral administration group, the menstruum was a certain proportion of dimethyl sulfoxide in HP-β-cyclodextrin solution or a certain proportion of sodium carboxymethyl cellulose solution, the test compound was mixed with the menstruum, vortexed and subjected to ultrasonic treatment to prepare 2 mg/mL homogeneous suspension for later use. After 2 mg/kg intravenous administration or 10 mg/kg oral administration to the Beagle dogs, a certain amount of whole blood samples were collected, centrifuged at 3000 g for 10 minutes, and the supernatant was separated to obtain plasma samples; then an acetonitrile solution containing internal standard with a volume 10 times that of the plasma sample was added to precipitate proteins, and then centrifuged; the supernatant was separated for analysis; LC-MS/MS analysis method was used to quantitatively analyze the blood drug concentration, and Phoenix WinNonlin software (Pharsight, USA) was used to calculate the pharmacokinetic parameters, such as peak concentration, time to peak concentration, clearance rate, half-life, area under the concentration-time curve, bioavailability, etc.
Among them, C0 is the initial concentration, T1/2 is the elimination half-life, Vdss is the steady-state apparent volume of distribution, Cl is the total clearance rate, AUC0-inf is the area under the plasma drug concentration-time curve from time 0 to infinity, Cmax is the peak concentration, Tmax is the time to peak concentration.

T1 sequence (P11712 whole entry): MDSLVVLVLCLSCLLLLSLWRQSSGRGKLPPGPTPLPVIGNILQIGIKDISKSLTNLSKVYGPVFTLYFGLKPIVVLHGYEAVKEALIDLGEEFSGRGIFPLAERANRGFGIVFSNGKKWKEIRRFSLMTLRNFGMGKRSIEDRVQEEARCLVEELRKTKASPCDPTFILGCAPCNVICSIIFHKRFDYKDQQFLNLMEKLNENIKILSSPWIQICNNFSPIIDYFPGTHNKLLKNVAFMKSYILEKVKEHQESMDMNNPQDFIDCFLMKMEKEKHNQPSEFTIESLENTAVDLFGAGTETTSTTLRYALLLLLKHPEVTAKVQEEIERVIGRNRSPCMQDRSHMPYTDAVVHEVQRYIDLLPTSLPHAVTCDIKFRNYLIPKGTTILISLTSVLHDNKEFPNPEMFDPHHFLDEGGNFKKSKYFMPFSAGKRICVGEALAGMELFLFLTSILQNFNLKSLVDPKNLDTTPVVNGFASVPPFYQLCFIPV

Regarding `COCCN1C[C@@H](n2ccc(F)c2)[C@H](NC(=O)Nc2c(C)c(-c3cnc(C4(F)COC4)nc3)nn2-c2ccccc2)C1` [Compound of formula (I)], on CYP2C9, 39.1 µM corresponded to half-maximal inhibition (IC50 at 10 min). For the same molecule, the “Plasma protein unbound rate, Human plasma” value in data set [1] was 13.2%. In data set [2], the AUC(0-inf) turned out to be 4.66 µM·h, the C0 was found to be 8.46 µM, the clearance is 12.4 mL/min/kg and the half-life was 26.4 min. Moreover, the Vd in data set [2] (read-out: Vdss) amounted to 0.49 L/kg.
